Consider 1 substance from patent US10172875B2, “Therapeutic combinations comprising anti-FOLR1 immunoconjugates” (ImmunoGen, Inc., priority 2015, dated 2019).

The subject of test [1] is ST088 human epithelial ovarian cancer (EOC) patient-derived tumor xenografts. Kind of test: Antitumor activity of IMGN853, bevacizumab, paclitaxel and combinations in ST088 tumor model (Example 6). The format is in vivo, SCID mice. Conditions: QWx2: IMGN853 5 mg/kg, bevacizumab 5 mg/kg, paclitaxel 10 mg/kg. The method, then:
Tumor volumes were measured twice weekly in three dimensions using a caliper.

Test [2] relates to platinum-sensitive ovarian cancer patient derived xenografts (PDXs). Kind of test: IMGN853 and carboplatin, single administration, in platinum-sensitive ovarian cancer PDX (FIG. 9D). In kind it is in vivo, SCID mice. Here is the method:
Data are expressed as mean and standard error of the mean (SEM) for each time point.
To examine whether these in vitro cellular effects translated to improved efficacy in vivo, mice bearing patient-derived xenografts (PDX) obtained from an individual with EOC were treated with IMGN853 and carboplatin, both as single agents and in combination (FIG. 9D). […] Animals received a single administration of IMGN853 (2.5 mg/kg) or carboplatin (80 mg/kg), and each regimen inhibited tumor growth as monotherapy (T/C values of 43% and 20% on day 39, respectively).

With IMGN853, the antitumor activity rating result in test [1] is “active”. Moreover, the T/C in test [1] (alone or combined) worked out at 31%. Further, in test [1] (responders/animals), the CR is given as 0/8 and the PR is reported as 0/8. The “single agent activity, previously determined (data not shown)” value in test [2] (dose not stated) was “robust single agent activity”. Also, in test [2] (single administration: IMGN853 2.5 mg/kg and/or carboplatin 80 mg/kg, day 39), the T/C is on record as 43%.
